Measured values: patent publication US12077503B2, “Substituted cyclic amides and their use as herbicides” (FMC CORPORATION, priority 2015, dated 2024)

Key:
Type in all cases: in vivo
[1] = tested on: barnyardgrass (Echinochloa crus-galli); test: Test G Post-Emergence Protocol; conditions: Echinochloa crus-galli, post-emergence, 312 h, read-out: Barnyardgrass damage rating; for pest or weed control at 15.625 g/ha: 15.625 g ai/ha, evaluated after 13 days (100=total damage to plant; 0=no damage to plant); for pest or weed control at 62.5 g/ha: 62.5 g ai/ha; for pest or weed control at 62.5 g/ha / pest or weed control at 250 g/ha: evaluated after 13 days, 100=total damage to plant, 0=no damage to plant; for pest or weed control at 250 g/ha: 250 g ai/ha
How it was run: (§1)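 Pot-grown seedlings, 8 days old, raised in a glasshouse at 24/16 °C day/night with 14 h light and 65% humidity, were sprayed post-emergence with test compound in acetone/water (50:50) plus 0.5% Tween 20 at 15.625, 62.5 or 250 g/ha. Damage was scored visually 13 days later on a 0–100 scale (100 = total damage).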

[2] = tested on: redroot pigweed (Amaranthus retroflexus); test: Test G Post-Emergence Protocol; conditions: Amaranthus retroflexus, post-emergence, 312 h, read-out: Pigweed, Redroot damage rating; for pest or weed control at 15.625 g/ha: 15.625 g ai/ha, evaluated after 13 days (100=total damage to plant; 0=no damage to plant); for pest or weed control at 62.5 g/ha: 62.5 g ai/ha; for pest or weed control at 62.5 g/ha / pest or weed control at 250 g/ha: evaluated after 13 days, 100=total damage to plant, 0=no damage to plant; for pest or weed control at 250 g/ha: 250 g ai/ha
How it was run: as §1

[3] = tested on: velvetleaf (Abutilon theophrasti); test: Test G Post-Emergence Protocol; conditions: Abutilon theophrasti, post-emergence, 312 h, read-out: Velvetleaf damage rating; for pest or weed control at 15.625 g/ha: 15.625 g ai/ha, evaluated after 13 days (100=total damage to plant; 0=no damage to plant); for pest or weed control at 62.5 g/ha: 62.5 g ai/ha; for pest or weed control at 62.5 g/ha / pest or weed control at 250 g/ha: evaluated after 13 days, 100=total damage to plant, 0=no damage to plant; for pest or weed control at 250 g/ha: 250 g ai/ha
How it was run: as §1

[4] = tested on: giant foxtail (Setaria faberi); test: Test G Post-Emergence Protocol; conditions: Setaria faberi, post-emergence, 312 h, read-out: Foxtail, Giant damage rating; for pest or weed control at 15.625 g/ha: 15.625 g ai/ha, evaluated after 13 days (100=total damage to plant; 0=no damage to plant); for pest or weed control at 62.5 g/ha: 62.5 g ai/ha; for pest or weed control at 62.5 g/ha / pest or weed control at 250 g/ha: evaluated after 13 days, 100=total damage to plant, 0=no damage to plant; for pest or weed control at 250 g/ha: 250 g ai/ha
How it was run: as §1

[5] = tested on: ivy-leaved morning glory (Ipomoea hederacea); test: Test G Post-Emergence Protocol; conditions: Ipomoea, post-emergence, 312 h, read-out: Morningglory, Ivy-leaved damage rating; for pest or weed control at 15.625 g/ha: 15.625 g ai/ha, evaluated after 13 days (100=total damage to plant; 0=no damage to plant); for pest or weed control at 62.5 g/ha: 62.5 g ai/ha; for pest or weed control at 62.5 g/ha / pest or weed control at 250 g/ha: evaluated after 13 days, 100=total damage to plant, 0=no damage to plant; for pest or weed control at 250 g/ha: 250 g ai/ha
How it was run: as §1

[6] = tested on: corn (Zea mays); test: Test G Post-Emergence Protocol; conditions: Zea mays, post-emergence, 312 h, read-out: Corn damage rating; for plant injury at 15.625 g/ha: 15.625 g ai/ha, evaluated after 13 days (100=total damage to plant; 0=no damage to plant); for plant injury at 62.5 g/ha: 62.5 g ai/ha; for plant injury at 62.5 g/ha / plant injury at 250 g/ha: evaluated after 13 days, 100=total damage to plant, 0=no damage to plant; for plant injury at 250 g/ha: 250 g ai/ha
How it was run: as §1

[7] = tested on: barnyardgrass (Echinochloa crus-galli); test: Test G Pre-Emergence Protocol; conditions: Echinochloa crus-galli, pre-emergence, 312 h, evaluated after 13 days; for pest or weed control at 15.625 g/ha: 15.625 g ai/ha; for pest or weed control at 15.625 g/ha / pest or weed control at 250 g/ha: read-out: Barnyardgrass damage rating (100=total damage to plant; 0=no damage to plant); for pest or weed control at 62.5 g/ha: 62.5 g ai/ha, 100=total damage to plant, 0=no damage to plant, read-out: Barnyardgrass damage rating; for pest or weed control at 250 g/ha: 250 g ai/ha
How it was run: (§2)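 Visual injury (0–100) at day 13 after a single pre-emergence spray. Rates: 15.625, 62.5, 250 g/ha in acetone–water 50:50 with 0.5% Tween 20. Growth conditions: 24/16° C, 14 h light, 65% humidity.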

[8] = tested on: redroot pigweed (Amaranthus retroflexus); test: Test G Pre-Emergence Protocol; conditions: Amaranthus retroflexus, pre-emergence, 312 h, evaluated after 13 days; for pest or weed control at 15.625 g/ha: 15.625 g ai/ha; for pest or weed control at 15.625 g/ha / pest or weed control at 250 g/ha: read-out: Pigweed, Redroot damage rating (100=total damage to plant; 0=no damage to plant); for pest or weed control at 62.5 g/ha: 62.5 g ai/ha, 100=total damage to plant, 0=no damage to plant, read-out: Pigweed, Redroot damage rating; for pest or weed control at 250 g/ha: 250 g ai/ha
How it was run: as §2

[9] = tested on: velvetleaf (Abutilon theophrasti); test: Test G Pre-Emergence Protocol; conditions: Abutilon theophrasti, pre-emergence, 312 h, evaluated after 13 days; for pest or weed control at 15.625 g/ha: 15.625 g ai/ha; for pest or weed control at 15.625 g/ha / pest or weed control at 250 g/ha: read-out: Velvetleaf damage rating (100=total damage to plant; 0=no damage to plant); for pest or weed control at 62.5 g/ha: 62.5 g ai/ha, 100=total damage to plant, 0=no damage to plant, read-out: Velvetleaf damage rating; for pest or weed control at 250 g/ha: 250 g ai/ha
How it was run: as §2

[10] = tested on: giant foxtail (Setaria faberi); test: Test G Pre-Emergence Protocol; conditions: Setaria faberi, pre-emergence, 312 h, evaluated after 13 days; for pest or weed control at 15.625 g/ha: 15.625 g ai/ha; for pest or weed control at 15.625 g/ha / pest or weed control at 250 g/ha: read-out: Foxtail, Giant damage rating (100=total damage to plant; 0=no damage to plant); for pest or weed control at 62.5 g/ha: 62.5 g ai/ha, 100=total damage to plant, 0=no damage to plant, read-out: Foxtail, Giant damage rating; for pest or weed control at 250 g/ha: 250 g ai/ha
How it was run: as §2

[11] = tested on: ivy-leaved morning glory (Ipomoea hederacea); test: Test G Pre-Emergence Protocol; conditions: Ipomoea, pre-emergence, 312 h, evaluated after 13 days; for pest or weed control at 15.625 g/ha: 15.625 g ai/ha; for pest or weed control at 15.625 g/ha / pest or weed control at 250 g/ha: read-out: Morningglory, Ivy-leaved damage rating (100=total damage to plant; 0=no damage to plant); for pest or weed control at 62.5 g/ha: 62.5 g ai/ha, 100=total damage to plant, 0=no damage to plant, read-out: Morningglory, Ivy-leaved damage rating; for pest or weed control at 250 g/ha: 250 g ai/ha
How it was run: as §2

[12] = tested on: corn (Zea mays); test: Test G Pre-Emergence Protocol; conditions: Zea mays, pre-emergence, 312 h, evaluated after 13 days; for plant injury at 15.625 g/ha: 15.625 g ai/ha; for plant injury at 15.625 g/ha / plant injury at 250 g/ha: read-out: Corn damage rating (100=total damage to plant; 0=no damage to plant); for plant injury at 62.5 g/ha: 62.5 g ai/ha, 100=total damage to plant, 0=no damage to plant, read-out: Corn damage rating; for plant injury at 250 g/ha: 250 g ai/ha
How it was run: as §2

Row | SMILES | pest or weed control at 15.625 g/ha [1] | pest or weed control at 62.5 g/ha [1] | pest or weed control at 250 g/ha [1] | pest or weed control at 15.625 g/ha [2] | pest or weed control at 62.5 g/ha [2] | pest or weed control at 250 g/ha [2] | pest or weed control at 15.625 g/ha [3] | pest or weed control at 62.5 g/ha [3] | pest or weed control at 250 g/ha [3] | pest or weed control at 15.625 g/ha [4] | pest or weed control at 62.5 g/ha [4] | pest or weed control at 250 g/ha [4] | pest or weed control at 15.625 g/ha [5] | pest or weed control at 62.5 g/ha [5] | pest or weed control at 250 g/ha [5] | plant injury at 15.625 g/ha [6] | plant injury at 62.5 g/ha [6] | plant injury at 250 g/ha [6] | pest or weed control at 15.625 g/ha [7] | pest or weed control at 62.5 g/ha [7] | also measured
1 | CN1C[C@H](c2ccc(C(F)(F)F)cc2)[C@@H](C(=O)Nc2cnccc2S(C)(=O)=O)C1=O (racemic) [Compound 1746] | 0% | 0% | 40% | 0% | 20% | 20% | 0% | 0% | 10% | 0% | 10% | 70% | 0% | 10% | 60% | 0% | 0% | 10% | 0% | 0% | pest or weed control at 250 g/ha [7]: 50%; pest or weed control at 15.625 g/ha [8]: 0%; pest or weed control at 62.5 g/ha [8]: 0%; pest or weed control at 250 g/ha [8]: 20%; pest or weed control at 15.625 g/ha [9]: 0%; pest or weed control at 62.5 g/ha [9]: 0%; pest or weed control at 250 g/ha [9]: 10%; pest or weed control at 15.625 g/ha [10]: 0%; pest or weed control at 62.5 g/ha [10]: 20%; pest or weed control at 250 g/ha [10]: 70%; pest or weed control at 15.625 g/ha [11]: 0%; pest or weed control at 62.5 g/ha [11]: 0%; pest or weed control at 250 g/ha [11]: 10%; plant injury at 15.625 g/ha [12]: 0%; plant injury at 62.5 g/ha [12]: 0%; plant injury at 250 g/ha [12]: 0%
2 | CN1C[C@H](c2ccc(C(F)(F)F)cc2)[C@@H](C(=O)Nc2cncnc2Cl)C1=O (racemic) [Compound 1748] | 0% | 0% | 0% | 0% | 0% | 0% | 0% | 0% | 0% | 0% | 0% | 0% | 0% | 0% | 0% | 0% | 0% | 0% | 0% | 0% | pest or weed control at 250 g/ha [7]: 0%; pest or weed control at 15.625 g/ha [8]: 0%; pest or weed control at 62.5 g/ha [8]: 0%; pest or weed control at 250 g/ha [8]: 0%; pest or weed control at 15.625 g/ha [9]: 0%; pest or weed control at 62.5 g/ha [9]: 0%; pest or weed control at 250 g/ha [9]: 0%; pest or weed control at 15.625 g/ha [10]: 0%; pest or weed control at 62.5 g/ha [10]: 0%; pest or weed control at 250 g/ha [10]: 0%; pest or weed control at 15.625 g/ha [11]: 0%; pest or weed control at 62.5 g/ha [11]: 0%; pest or weed control at 250 g/ha [11]: 0%; plant injury at 15.625 g/ha [12]: 0%; plant injury at 62.5 g/ha [12]: 0%; plant injury at 250 g/ha [12]: 0%
3 | CSc1ccncc1NC(=O)[C@H]1C(=O)N(C)C[C@@H]1c1ccc(C(F)(F)F)cc1 (racemic) [Compound 1749] | 0% | 0% | 0% | 0% | 0% | 0% | 0% | 0% | 0% | 0% | 0% | 0% | 0% | 0% | 0% | 0% | 0% | 0% | 0% | 0% | pest or weed control at 250 g/ha [7]: 0%; pest or weed control at 15.625 g/ha [8]: 0%; pest or weed control at 62.5 g/ha [8]: 0%; pest or weed control at 250 g/ha [8]: 0%; pest or weed control at 15.625 g/ha [9]: 0%; pest or weed control at 62.5 g/ha [9]: 0%; pest or weed control at 250 g/ha [9]: 0%; pest or weed control at 15.625 g/ha [10]: 0%; pest or weed control at 62.5 g/ha [10]: 0%; pest or weed control at 250 g/ha [10]: 0%; pest or weed control at 15.625 g/ha [11]: 0%; pest or weed control at 62.5 g/ha [11]: 0%; pest or weed control at 250 g/ha [11]: 0%; plant injury at 15.625 g/ha [12]: 0%; plant injury at 62.5 g/ha [12]: 0%; plant injury at 250 g/ha [12]: 0%
